According to patent publication US12559863B2, “Macrocyclic modulators of disease associated protein misfolding and aggregation” (RESQ BIOTECH, priority 2017, dated 2026):
Where a SMILES comes first, the peptide text is derived from it.

Tests used:
[1] = tested on: C. elegans strain CL2331 (Aβ3-42-GFP); assay: Confocal microscopy of Aβ3-42-GFP deposits in C. elegans CL2331; format: in vivo, Caenorhabditis elegans; details: 10 μM AβC5-34 or 5 μM AβC5-116
Description: We followed standard procedures for C. elegans strains maintenance at 16° C. The following strains were used: CL2179: dvIs179 [myo-3p::GFP::3′UTR(long)+rol-6(su1006)] (available on the world wide web at: cgc.cbs.umn.edu/strain.php?id=26134); CL2331: dvIs37 [myo-3p::GFP::Aβ(3-42)+rol-6(su1006)] (available on the world wide web at: cgc.cbs.umn.edu/strain.php?id=26135); CL4176: smg-1(cc546) I; dvIs27 [myo-3::Aβ(1-42)-let 3′UTR(pAF29); pRF4 (rol-6(su1006)] (available on the world wide web at: cgc.cbs.umn.edu/strain.php?id=7663).
For Aβ3-42 deposit measurements, synchronized (at the L4 larval stage) CL2331 and CL2179 (control strain) animals exposed to solvent (0.26% DMSO), 10 μM AβC5-34 or 5 μM AβC5-116 and grown at 20° C. (to induce aggregation) until day 2 of adulthood were collected. Animals were mounted onto 2% agarose pads on glass slides, anesthetized with 10 mM levamisole and observed at RT using a Leica TCS SPE confocal laser scanning microscope (Leica Lasertechnik GmbH, Germany). The LAS AF software was used for image acquisition. At least twenty animals/condition in three independent experiments were processed. Images of whole worms and focused images in the posterior area of nematodes were acquired with 10×0.45 and 20×0.70 numerical aperture, respectively.

[2] = tested on: C. elegans strain CL2006 (human Aβ42 in body wall muscle cells); assay: Paralysis assay in C. elegans CL2006 fed peptide-producing E. coli OP50; format: in vivo, Caenorhabditis elegans; details: fed throughout lifespan with E. coli OP50 producing the peptide
From the text: To evaluate the protective effects of the selected cyclic peptides against Aβ aggregation and toxicity in vivo, the inventors employed two established models of AD in the nematode worm Caenorhabditis elegans. The conservation of genetic and metabolic pathways between C. elegans and mammals, in combination with its completely characterized nervous and muscular system, its easy visualization and simple manipulation, has nominated C. elegans as an excellent model for neurodegenerative diseases including AD, while chemical screening against Aβ-induced toxicity in C. elegans is increasingly used in AD drug discovery. The inventors performed initially a paralysis assay in CL2006, a strain where human Aβ42 is constitutively expressed in the body wall muscle cells of the animals and Aβ aggregate formation is accompanied by adult-onset paralysis. […] To evaluate the state of Aβ aggregation in vivo, we utilized the strain CL2331, which expresses an Aβ3-42-GFP fusion in its body wall muscle cells upon temperature up-shift.

[3] = tested on: primary mouse hippocampal neurons; assay: MTT cell viability in primary hippocampal neurons; format: cell-based; details: for neurotoxicity of Aβ40: 1 μM Aβ40, 1:1 and 2:1 peptides:Aβ; for neurotoxicity of Aβ40 / neurotoxicity of Aβ42: 24 h, MTT; for neurotoxicity of Aβ42: 1 μM Aβ42, 1:1 and 2:1 peptides:Aβ; for growth-promoting effects or cytotoxicity of peptide on its own: peptide alone, no Aβ
Description: The media/agents for primary neuronal cell cultures were purchased from Thermo Fisher Scientific (USA). Hippocampal neuronal cultures were obtained from postnatal day 1 female pups of C57BL/6 mice. Briefly, after being dissected, the hippocampus was incubated with 0.25% trypsin for 15 min at 37° C. The hippocampi were then rinsed in 10 mL of Hibernate containing 10% (v/v) heat-inactivated fetal bovine serum (FBS). Cultures were maintained in Neurobasal-A medium containing 2% B-27 supplement, 0.5 mM Gluta-MAX and 1% penicillin/streptomycin at 37° C. and 5% CO2. Half of the medium was replaced twice a week. Neuronal hippocampal cells were plated at a density of approximately 2×10^4 per well in 96-well plates and 5×10^5 per well in 24-well plates for MTT and induced cell death assays, respectively. After seven days of incubation in culture well plates, the primary hippocampal neurons were used for the cell viability measurements.
Solutions of synthetic Aβ40 or Aβ42 (10 μM) in PBS, preincubated at 37° C. (3 d for Aβ40 solutions and 1 d for Aβ42 solutions) in the presence or absence of synthetic cyclic peptides (1:1 and 2:1 ratio of peptides:Aβ), were diluted with fresh medium and transferred into wells at a 1 μM final Aβ concentration. Cell viability was determined using the MTT assay. MTT (3-[4,5-dimethylthiazol-2-yl]-2,5-diphenyl tetrazolium bromide) was purchased from Applichem (Germany). After 24 h of exposure to Aβ solutions, 100 μL of a 0.5 mg/mL stock solution of MTT in Neurobasal-A was added to each well of primary hippocampal neurons followed by a 3 h incubation at 37° C., while 100 μL of a 1 mg/mL stock solution of MTT in DMEM complete medium was added to each well of U87MG cells followed by a 4 h incubation at 37° C. The medium was then removed and the cells were diluted in DMSO. The relative formazan concentration was measured by determination of the absorbance at 540 nm using a plate reader (Tecan, Austria). Results were expressed as the percentage of MTT reduction, assuming that the absorbance of control (untreated) cells was 100%, and represent the mean of three independent experiments with six replicate wells for each condition. Induced cell death was also qualitatively examined by phase-contrast microscopy (Carl Zeiss, Axiovert 25 CFL, Germany) using the above solutions. In each run, the effect of solutions of plain synthetic peptides and plain Aβ40 or Aβ42 was independently checked to serve as internal control.

[4] = tested on: C. elegans strain CL4176 (human Aβ42); assay: Dot blot analysis of total and oligomeric Aβ in C. elegans CL4176; format: in vivo, Caenorhabditis elegans; details: for accumulation level of total Aβ, CL4176: antibody 6E10; for accumulation level of oligomeric Aβ, CL4176: antibody AB9234
Description: CL4176 animals were allowed to lay eggs for 3 h on NGM plates containing either synthetic peptides or 0.26% DMSO. Paralysis was induced upon temperature up-shift and the progeny were exposed to either pure peptides or 0.26% DMSO until 50% of the control population was paralyzed. The animals were then collected and boiled in non-reducing Laemmli buffer. For dot blot analysis, 1-5 μg of protein lysates were spotted onto 0.2 μm nitrocellulose membranes (Bio-Rad, USA) after soaking into TBS pre-heated at 80° C. Immunoblotting was performed using the anti-Aβ antibody 6E10 (recognizes total Aβ) and the anti-amyloid protein, oligomer-specific antibody AB9234 (Merck Millipore, Germany). Actin was used as a loading control. Blots were developed with chemiluminescence by using the Clarity™ Western ECL substrate (Bio-Rad, USA). Quantification of the ratio of each detected protein to actin using the anti-actin antibody sc-1615 (Santa Cruz, Germany), and normalization to control appears next to each representative blot.

**Q.** With `C[C@@H]1NC(=O)[C@H](CO)NC(=O)[C@H]([C@@H](C)O)NC(=O)[C@@H]2CCCN2C(=O)[C@H](CO)NC1=O` [AβC5-34, cyclo-SASPT] (cyclo(ASPTS)) as the molecule, how does the “Aβ deposits, CL2331” value [1] read?
**A.** The value was “significant reduction of Aβ deposits”.

**Q.** And the “appearance of paralysis phenotype, CL2006” value [2]?
**A.** Its value is “significant delay”.

**Q.** What about the “neurotoxicity of Aβ40” value [3] of the same molecule?
**A.** Its value is “markedly inhibit the neurotoxicity”.

**Q.** What about the “neurotoxicity of Aβ42” value [3] of the same molecule?
**A.** The value was “markedly inhibit the neurotoxicity”.

**Q.** What about the “growth-promoting effects or cytotoxicity of peptide on its own” value [3] of the same molecule?
**A.** Its value is “did not exhibit general growth-promoting effects or considerable cytotoxicity”.

**Q.** And the “accumulation level of total Aβ, CL4176” value [4]?
**A.** The value was “significant reduction of both Aβ species”.

**Q.** What about the “accumulation level of oligomeric Aβ, CL4176” value [4] of the same molecule?
**A.** Its value is “significant reduction of both Aβ species”.

**Q.** Which results are given for `C[C@@H]1NC(=O)[C@H]([C@@H](C)O)NC(=O)[C@H](CCCNC(=N)N)NC(=O)[C@H](CC(=O)O)NC(=O)[C@H](Cc2ccccc2)NC1=O` [AβC5-116, cyclo-TAFDR] (cyclo(AFDRT))?
**A.** Aβ deposits, CL2331 [1]: significant reduction of Aβ deposits; appearance of paralysis phenotype, CL2006 [2]: significant delay; neurotoxicity of Aβ40 [3]: markedly inhibit the neurotoxicity; neurotoxicity of Aβ42 [3]: markedly inhibit the neurotoxicity; growth-promoting effects or cytotoxicity of peptide on its own [3]: did not exhibit general growth-promoting effects or considerable cytotoxicity; accumulation level of total Aβ, CL4176 [4]: significant reduction of both Aβ species; accumulation level of oligomeric Aβ, CL4176 [4]: significant reduction of both Aβ species
